Common to all, as to assay type: cell-based
Experiment [1] relates to S. aureus. As to the method: (§1) Broth Dilution Antibacterial Susceptibility Testing
(§2) The sensitivity of relevant bacterial strains to the peptides (was determined using Clinical Laboratory Standard Institute (CLSI; formerly NCCLS) Approved Standards. Bacterial susceptibility was tested using “Methods for Dilution Antimicrobial Susceptibility Tests for Bacteria That Grow […]; Approved Standard—Seventh Edition M7-A7”

The subject of experiment [2] is E. coli. Here is the method:
as §1, §2

The test system of experiment [3] is Ps. aeruginosa. As to the method: as §1, §2
For experiment [4], the system named is P. acnes. Here is the method:
as §1, §2

Experiment [5] has as its system Str. pyogenes. Here is the method:
as §1, §2

The mark [6] stands for this setting: Ps. aeruginosa, CLSI broth dilution.
The mark [7] stands for this setting: S. aureus, values marked * in mg/ml.
The mark [8] stands for this setting: Ps. aeruginosa, values marked * in mg/ml.
The mark [9] stands for this setting: P. acnes, values marked * in mg/ml.

These results are taken from patent US9371363B2, “Peptides and their use” (Novabiotics Limited, priority 2007, dated 2016).

Read-outs that look alike come from different tables or passages of the source. Where no end group is shown, it is not given here.

On to `N=C(N)NCCC[C@H](NC(=O)[C@H](CCCNC(=N)N)NC(=O)[C@H](CCCNC(=N)N)NC(=O)[C@H](CCCNC(=N)N)NC(=O)[C@H](CCCNC(=N)N)NC(=O)[C@H](CCCNC(=N)N)NC(=O)[C@@H](N)CCCNC(=N)N)C(=O)O` [NP105, RRRRRRR (SEQ ID NO: 23)], for which the “Minimum Inhibitory Concentration, antimicrobial activity, S. aureus” value (“Minimum Inhibitory Concentration … S. aureus” for short) in experiment [1] is on record as over 2 mM. Moreover, the “Minimum Inhibitory Concentration, antimicrobial activity, E. coli” value in experiment [2] is over 2 mM.

In the case of `CC(=O)N[C@@H](CCCNC(=N)N)C(=O)N[C@@H](CCCNC(=N)N)C(=O)N[C@@H](CCCNC(=N)N)C(=O)N[C@@H](CCCNC(=N)N)C(=O)N[C@@H](CCCNC(=N)N)C(=O)N[C@@H](CCCNC(=N)N)C(=O)N[C@@H](CCCNC(=N)N)C(=O)N[C@@H](CCCNC(=N)N)C(=O)N[C@@H](CCCNC(=N)N)C(=O)N[C@@H](CCCNC(=N)N)C(=O)N[C@@H](CCCNC(=N)N)C(=O)N[C@@H](CCCNC(=N)N)C(=O)N[C@@H](CCCNC(=N)N)C(N)=O` [NP338], in experiment [3] (setting [6]), the “Minimum Inhibitory Concentration, antimicrobial activity, Ps. aeruginosa” value came to 0.0625 mM. In addition, in experiment [4], the “Minimum Inhibitory Concentration, antimicrobial activity, P. acnes” value (shortened to “Minimum Inhibitory Concentration … P. acnes”) was found to be 0.005 mM.

For `N=C(N)NCCC[C@@H](N)C(=O)N[C@H](CCCNC(=N)N)C(=O)N[C@H](CCCNC(=N)N)C(=O)N[C@H](CCCNC(=N)N)C(=O)N[C@H](CCCNC(=N)N)C(=O)N[C@H](CCCNC(=N)N)C(=O)N[C@H](CCCNC(=N)N)C(=O)N[C@H](CCCNC(=N)N)C(=O)N[C@H](CCCNC(=N)N)C(=O)N[C@H](CCCNC(=N)N)C(=O)N[C@H](CCCNC(=N)N)C(=O)N[C@H](CCCNC(=N)N)C(=O)N[C@H](CCCNC(=N)N)C(=O)O` [NP339, dRdRdRdRdRdRdRdRdRdRdRdRdR (SEQ ID NO: 31)], in experiment [1], the “Minimum Inhibitory Concentration … S. aureus” value was 0.25 mM. For the same compound, the “Minimum Inhibitory Concentration, antimicrobial activity, Ps. aeruginosa” value in experiment [3] (setting [6]) is 0.0625 mM. For the same compound, the “Minimum Inhibitory Concentration … P. acnes” value in experiment [4] came out at 0.02 mM.

Turning to `CC(=O)N[C@H](CCCNC(=N)N)C(=O)N[C@H](CCCNC(=N)N)C(=O)N[C@H](CCCNC(=N)N)C(=O)N[C@H](CCCNC(=N)N)C(=O)N[C@H](CCCNC(=N)N)C(=O)N[C@H](CCCNC(=N)N)C(=O)N[C@H](CCCNC(=N)N)C(=O)N[C@H](CCCNC(=N)N)C(=O)N[C@H](CCCNC(=N)N)C(=O)N[C@H](CCCNC(=N)N)C(=O)N[C@H](CCCNC(=N)N)C(=O)N[C@H](CCCNC(=N)N)C(=O)N[C@H](CCCNC(=N)N)C(N)=O` [NP340, Ac-dRdRdRdRdRdRdRdRdRdRdRdRdR—NH2 (SEQ ID NO: 31)], the “Minimum Inhibitory Concentration … S. aureus” value in experiment [1] was determined as 0.25 mM. The “Minimum Inhibitory Concentration, antimicrobial activity, Ps. aeruginosa” value in experiment [3] (setting [6]) came to 0.125 mM. Also, in experiment [4], the “Minimum Inhibitory Concentration … P. acnes” value stood at 0.02 mM.

`N=C(N)NCCC[C@H](NC(=O)[C@H](CCCNC(=N)N)NC(=O)[C@H](CCCNC(=N)N)NC(=O)[C@H](CCCNC(=N)N)NC(=O)[C@H](CCCNC(=N)N)NC(=O)[C@H](CCCNC(=N)N)NC(=O)[C@H](CCCNC(=N)N)NC(=O)[C@H](CCCNC(=N)N)NC(=O)[C@H](CCCNC(=N)N)NC(=O)[C@H](CCCNC(=N)N)NC(=O)[C@@H](N)CCCNC(=N)N)C(=O)O` [NP350, RRRRRRRRRRR (SEQ ID NO: 13)]: in experiment [3], the “Minimum Inhibitory Concentration, antimicrobial activity, Ps. aeruginosa” value came out at 0.125 mM.

As for `N=C(N)NCCC[C@H](NC(=O)[C@H](CCCNC(=N)N)NC(=O)[C@H](CCCNC(=N)N)NC(=O)[C@H](CCCNC(=N)N)NC(=O)[C@H](CCCNC(=N)N)NC(=O)[C@H](CCCNC(=N)N)NC(=O)[C@H](CCCNC(=N)N)NC(=O)[C@H](CCCNC(=N)N)NC(=O)[C@H](CCCNC(=N)N)NC(=O)[C@H](CCCNC(=N)N)NC(=O)[C@H](CCCNC(=N)N)NC(=O)[C@H](CCCNC(=N)N)NC(=O)[C@@H](N)CCCNC(=N)N)C(=O)O` [NP351, RRRRRRRRRRRRR (SEQ ID NO: 14)], in experiment [3] (setting [6]), the “Minimum Inhibitory Concentration, antimicrobial activity, Ps. aeruginosa” value is given as 0.125 mM.

On to (K)n, n = 103-205 [NP101], for which the “Minimum Inhibitory Concentration … S. aureus” value in experiment [1] (setting [7]) is given as <0.0313* mg/ml. Further, in experiment [3] (setting [8]), the “Minimum Inhibitory Concentration, antimicrobial activity, Ps. aeruginosa” value is reported as 0.125* mg/ml. Also, the “Minimum Inhibitory Concentration … P. acnes” value in experiment [4] (setting [9]) is listed as 0.1* mg/ml.

On to (R)n, n = 28-86 [NP121], for which the “Minimum Inhibitory Concentration … S. aureus” value in experiment [1] (setting [7]) was 0.0313* mg/ml. The “Minimum Inhibitory Concentration, antimicrobial activity, Ps. aeruginosa” value in experiment [3] (setting [8]) is recorded as 0.0625* mg/ml. Besides, the “Minimum Inhibitory Concentration … P. acnes” value in experiment [4] (setting [9]) was 0.01* mg/ml.

Regarding “KKKKKKK [NP104, KKKKKKK (SEQ ID NO: 35)]”, the “Minimum Inhibitory Concentration, antimicrobial activity, Str. pyogenes” value in experiment [5] was determined as 1 mM. For the same compound, in experiment [1], the “Minimum Inhibitory Concentration … S. aureus” value is recorded as over 2 mM. The “Minimum Inhibitory Concentration, antimicrobial activity, E. coli” value in experiment [2] was over 2 mM.
